Measurements taken from patent publication US11857560B2, “Pharmaceutical compositions comprising substituted nucleotides and nucleosides for treating viral infections” (priority 2013, dated 2024).
Where two headings read alike, the source gives them in different places.

Assays:
[1] = Cellular toxicity in parallel with HCV replicon assay (XTT); settings: human
[2] = Cytotoxicity in GT1b replicon cells; assay type: cell-based
Huh-7 = assay: Cytotoxicity panel, Huh-7; settings: read-out: Cytotoxicity (CC50 uM) Huh-7; Huh-7
Cytotoxicity panel, CEM = settings: human, CEM cells, Cytotoxicity (CC50 uM) CEM
[3] = Cytotoxicity panel, Huh-7; settings: human, Huh-7 cells, Cytotoxicity (CC50 uM) Huh-7, Huh-7
[4] = Cytotoxicity panel, HepG2; settings: human, HepG2 cells
VEEV = assay: microbe, parasite or virus in culture; assay type: cell-based; settings: Venezuelan equine encephalitis virus, read-out: VEEV EC50
Influenza B = assay: Antiviral activity, Influenza B; assay type: cell-based
[5] = test system: Influenza A H5N1 (low path); assay: microbe, parasite or virus in culture; assay type: cell-based; settings: H5N1, read-out: Influenza A H5N1 (low path) EC50
Measles = assay: Antiviral activity, Measles; assay type: cell-based, measles virus; settings: Measles morbillivirus
Influenza A H1N1 = assay: Antiviral activity, Influenza A H1N1; assay type: cell-based
Dengue Virus = assay: Antiviral activity, Dengue Virus; assay type: cell-based
RVFV = assay: microbe, parasite or virus in culture; assay type: cell-based; settings: Rift Valley fever virus, read-out: RVFV EC50
CHIK Virus = assay: Antiviral activity, CHIK Virus; assay type: cell-based; settings: Chikungunya virus, read-out: CHIK Virus EC50
West Nile Virus = assay: Antiviral activity, West Nile Virus; assay type: cell-based; settings: read-out: West Nile Virus EC50
Tacaribe Virus = assay: microbe, parasite or virus in culture; assay type: cell-based; settings: Mammarenavirus tacaribeense, read-out: Tacaribe Virus EC50
RSV = assay: Antiviral activity, RSV; assay type: cell-based; settings: human respiratory syncytial virus
Influenza A H3N2 = assay: Antiviral activity, Influenza A H3N2; assay type: cell-based
SARS = assay: microbe, parasite or virus in culture; settings: Severe acute respiratory syndrome coronavirus, read-out: SARS EC50
Dengue Type 2 = assay: Anti-Dengue virus cytoprotection assay, Huh-7 cells; settings: Huh-7, read-out: Dengue Type 2 Huh-7 Cells (EC50 uM)
[6] = Toxicity in Huh-7 cells (Dengue assay); settings: human, Huh-7 cells
CEM = assay: Cytotoxicity panel, CEM; settings: read-out: Cytotoxicity (CC50 uM) CEM
[7] = Influenza B virus; read-out: Influenza B EC50
[8] = Influenza A virus, H1N1; read-out: Influenza A H1N1 EC50
[9] = Influenza A virus, H3N2; read-out: Influenza A H3N2 EC50

**Q.** For CC(C)OC(=O)[C@H](C)NP(=O)(OC[C@H]1O[C@@H](n2ccc(=O)[nH]c2=S)[C@@H](O)C1O)Oc1ccccc1 (stereo partly drawn) [ENUC-02071-2], which CC50 at 72 h [1] is on record?
**A.** The CC50 at 72 h was greater than 100 µM.

**Q.** For CC(C)OC(=O)[C@H](C)NP(=O)(OC[C@H]1O[C@@H](n2ccc(=O)[nH]c2=S)[C@](C)(O)C1O)Oc1ccccc1 (stereo partly drawn) [ENUC-01911-2], which CC50 [2] is on record?
**A.** Its CC50 is greater than 10 µM.

**Q.** And the CC50 (Huh-7)?
**A.** The CC50 was greater than 400 µM.

**Q.** With CC(C)OC(=O)[C@H](C)NP(=O)(OC[C@H]1O[C@@H](n2ccc(=O)[nH]c2=S)[C@@H](O)C1O)Oc1ccccc1 (stereo partly drawn) [ENUC-02072-1] as the compound, how does the CC50 (Cytotoxicity panel, CEM) read?
**A.** The CC50 was greater than 400 µM.

**Q.** What about the CC50 [3] of the same compound?
**A.** The CC50 was greater than 400 µM.

**Q.** What about the CC50 [4] of the same compound?
**A.** The CC50 was greater than 400 µM.

**Q.** With CC(C)OC(=O)[C@H](C)NP(=O)(OC[C@H]1O[C@@H](n2ccc(=S)[nH]c2=O)[C@](C)(O)C1O)Oc1ccccc1 (stereo partly drawn) [ENUC-01920-1] as the compound, how does the CC50 [3] read?
**A.** The CC50 was greater than 400 µM.

**Q.** What about the CC50 [4] of the same compound?
**A.** Its CC50 is greater than 400 µM.

**Q.** Which CC50 [4] does the source give for C[C@@]1(O)C(O)[C@@H](CO)O[C@H]1n1ccc(=S)[nH]c1=O (stereo partly drawn) [ENUC-01916-1] here?
**A.** The CC50 was greater than 400 µM.

**Q.** What does the source list for CC(C)OC(=O)[C@H](C)N[P@@](=O)(OC[C@H]1O[C@@H](n2ccc(=O)[nH]c2=O)[C@](C)(F)C1O)Oc1ccccc1 (stereo partly drawn) [ENUC-02026-1]?
**A.** CC50 (Cytotoxicity panel, CEM): > 400 µM; CC50 [3]: > 400 µM; CC50 [4]: > 400 µM

**Q.** Which EC50 (VEEV) does the source give for CNc1ccn([C@@H]2O[C@H](CO)C(O)[C@@H]2F)c(=O)n1 (stereo partly drawn) [EFVX-01853] here?
**A.** Its EC50 is greater than 100 µg/mL.

**Q.** What about the EC50 (Influenza B; [7]) of the same compound?
**A.** Its EC50 is greater than 100 µM.

**Q.** And the EC50 [5]?
**A.** The EC50 was greater than 100 µM.

**Q.** What about the EC50 (Measles) of the same compound?
**A.** Its EC50 is greater than 100 µM.

**Q.** What about the EC50 (Influenza A H1N1; [8]) of the same compound?
**A.** The EC50 was greater than 100 µM.

**Q.** And the EC50 (Dengue Virus)?
**A.** Its EC50 is greater than 100 µg/mL.

**Q.** What about the EC50 (RVFV) of the same compound?
**A.** Its EC50 is greater than 100 µg/mL.

**Q.** And the EC50 (CHIK Virus)?
**A.** Its EC50 is greater than 100 µg/mL.

**Q.** And the EC50 (West Nile Virus)?
**A.** The EC50 was greater than 100 µg/mL.

**Q.** What about the EC50 (Tacaribe Virus) of the same compound?
**A.** The EC50 was greater than 100 µg/mL.

**Q.** What about the EC50 (RSV) of the same compound?
**A.** Its EC50 is greater than 100 µM.

**Q.** And the EC50 (Influenza A H3N2; [9])?
**A.** Its EC50 is greater than 100 µM.

**Q.** And the EC50 (SARS)?
**A.** Its EC50 is greater than 100 µM.

**Q.** For C[C@@]1(O)C(O)[C@@H](COP(=O)(O)O)O[C@H]1n1ccc(=O)[nH]c1=S (stereo partly drawn) [ENUC-01984-1], which CC50 (Cytotoxicity panel, CEM) is on record?
**A.** Its CC50 is greater than 400 µM.

**Q.** What about the CC50 [3] of the same compound?
**A.** Its CC50 is greater than 400 µM.

**Q.** What about the CC50 [4] of the same compound?
**A.** Its CC50 is greater than 400 µM.

**Q.** And the CC50 at 72 h [1]?
**A.** The CC50 at 72 h was greater than 100 µM.

**Q.** For CC(C)OC(=O)[C@H](C)NP(=O)(OC[C@H]1O[C@@H](n2ccc(=O)[nH]c2=[Se])[C@](C)(O)C1O)Oc1ccccc1 (stereo partly drawn) [ENUC-02058-1], which CC50 [3] is on record?
**A.** Its CC50 is greater than 100 µM.

**Q.** And the CC50 [4]?
**A.** The CC50 was greater than 400 µM.

**Q.** For CC(C)OP1(=O)OC[C@H]2O[C@@H](n3ccc(=O)[nH]c3=O)C(F)[C@H]2O1 (stereo partly drawn) [EFVX- 01841], which EC50 (Influenza B; Influenza B virus, read-out: Influenza B EC50) is on record?
**A.** The EC50 was greater than 100 µM.

**Q.** What about the EC50 [5] of the same compound?
**A.** The EC50 was greater than 100 µM.

**Q.** What about the CC50 (in vitro) of the same compound?
**A.** The CC50 was greater than 89 µM.

**Q.** What about the EC50 (Influenza A H1N1; [8]) of the same compound?
**A.** The EC50 was greater than 100 µM.

**Q.** What about the EC50 (RSV) of the same compound?
**A.** The EC50 was greater than 100 µM.

**Q.** And the EC50 (Influenza A H3N2; [9])?
**A.** The EC50 was greater than 100 µM.

**Q.** And the EC50 (SARS)?
**A.** Its EC50 is 70 µM.

**Q.** With C[C@H](NP(=O)(O)OC[C@H]1O[C@@H](n2ccc(=O)[nH]c2=S)[C@](C)(O)C1O)C(=O)O (stereo partly drawn) [ENUC-01997-1] as the compound, how does the CC50 (Cytotoxicity panel, CEM) read?
**A.** The CC50 was greater than 400 µM.

**Q.** What about the CC50 [3] of the same compound?
**A.** The CC50 was greater than 400 µM.

**Q.** What about the CC50 [4] of the same compound?
**A.** Its CC50 is greater than 400 µM.

**Q.** What about the CC50 at 72 h [1] of the same compound?
**A.** The CC50 at 72 h was greater than 100 µM.

**Q.** With Nc1nc(=O)n([C@@H]2O[C@H](CO)C(O)[C@@H]2F)cc1CO (stereo partly drawn) [EFVX-01856] as the compound, how does the EC50 (VEEV) read?
**A.** Its EC50 is greater than 100 µg/mL.

**Q.** What about the EC50 (Influenza B; [7]) of the same compound?
**A.** The EC50 was greater than 100 µM.

**Q.** What about the EC50 [5] of the same compound?
**A.** Its EC50 is greater than 100 µM.

**Q.** And the EC50 (Measles)?
**A.** Its EC50 is greater than 100 µM.

**Q.** And the EC50 (Influenza A H1N1; [8])?
**A.** Its EC50 is greater than 100 µM.

**Q.** What about the EC50 (Dengue Virus) of the same compound?
**A.** Its EC50 is greater than 100 µg/mL.

**Q.** What about the EC50 (RVFV) of the same compound?
**A.** The EC50 was greater than 100 µg/mL.

**Q.** And the EC50 (CHIK Virus)?
**A.** Its EC50 is greater than 100 µg/mL.

**Q.** What about the EC50 (West Nile Virus) of the same compound?
**A.** The EC50 was greater than 100 µg/mL.

**Q.** And the EC50 (Tacaribe Virus)?
**A.** The EC50 was greater than 100 µg/mL.

**Q.** And the EC50 (RSV)?
**A.** Its EC50 is greater than 100 µM.

**Q.** And the EC50 (Influenza A H3N2; [9])?
**A.** Its EC50 is greater than 100 µM.

**Q.** What about the EC50 (SARS) of the same compound?
**A.** Its EC50 is greater than 100 µM.

**Q.** What does the source list for CC(C)OC(=O)[C@H](C)NP(=O)(OC[C@@]1(N=[N+]=[N-])O[C@@H](n2ccc(=S)[nH]c2=O)[C@@H](O)C1O)Oc1ccccc1 (stereo partly drawn) [ENUC-02083-1]?
**A.** CC50 (Cytotoxicity panel, CEM): 229 µM; CC50 [4]: > 400 µM; EC50 (Dengue Type 2): 4.82 µM; CC50 at 72 h [1]: > 100 µM; CC50 [6]: > 100 µM

**Q.** Which EC50 (VEEV) does the source give for Nc1ccn([C@@H]2O[C@H](CO)C(O)[C@@H]2F)c(=S)n1 (stereo partly drawn) [EFVX-01857] here?
**A.** Its EC50 is greater than 100 µg/mL.

**Q.** And the EC50 (Influenza B; [7])?
**A.** The EC50 was greater than 100 µM.

**Q.** What about the EC50 [5] of the same compound?
**A.** Its EC50 is greater than 100 µM.

**Q.** What about the EC50 (Measles) of the same compound?
**A.** The EC50 was greater than 100 µM.

**Q.** And the CC50 (in vitro)?
**A.** Its CC50 is 87 µM.

**Q.** And the EC50 (Influenza A H1N1; Influenza A virus, H1N1, read-out: Influenza A H1N1 EC50)?
**A.** Its EC50 is greater than 100 µM.

**Q.** And the EC50 (Dengue Virus)?
**A.** Its EC50 is greater than 100 µg/mL.

**Q.** And the EC50 (RVFV)?
**A.** The EC50 was greater than 100 µg/mL.

**Q.** What about the EC50 (CHIK Virus) of the same compound?
**A.** The EC50 was greater than 100 µg/mL.

**Q.** What about the EC50 (West Nile Virus) of the same compound?
**A.** Its EC50 is greater than 100 µg/mL.

**Q.** And the EC50 (Tacaribe Virus)?
**A.** The EC50 was greater than 100 µg/mL.

**Q.** What about the EC50 (RSV) of the same compound?
**A.** Its EC50 is greater than 100 µM.

**Q.** And the EC50 (Influenza A H3N2; Influenza A virus, H3N2, read-out: Influenza A H3N2 EC50)?
**A.** The EC50 was greater than 100 µM.

**Q.** And the EC50 (SARS)?
**A.** Its EC50 is greater than 87 µM.

**Q.** For CC(C)OC(=O)[C@H](C)NP(=O)(OC[C@H]1O[C@@H](n2ccc(=S)[nH]c2=O)[C@@H](O)C1O)Oc1ccccc1 (stereo partly drawn) [ENUC-02071-1], which CC50 (Cytotoxicity panel, CEM) is on record?
**A.** The CC50 was 241 µM.

**Q.** What about the CC50 (CEM) of the same compound?
**A.** The CC50 was greater than 400 µM.

**Q.** What about the CC50 [3] of the same compound?
**A.** The CC50 was 381 µM.

**Q.** What about the CC50 at 72 h [1] of the same compound?
**A.** Its CC50 at 72 h is greater than 100 µM.
